From ChEMBL document CHEMBL4813994, “Discovery of novel and potent PARP/PI3K dual inhibitors for the treatment of cancer” (Eur J Med Chem, 2021)

Assays:
[1] = target: Phosphatidylinositol 4,5-bisphosphate 3-kinase catalytic subunit alpha isoform (Homo sapiens, UniProt P42336); test: Inhibition of PI3Kalpha (unknown origin) using PIP2 as substrate measured after 40 mins by ADP-glo plus luminescence assay
[2] = target: Phosphatidylinositol 4,5-bisphosphate 3-kinase catalytic subunit gamma isoform (Homo sapiens, UniProt P48736); test: Inhibition of PI3Kgamma (unknown origin) using PIP2 as substrate measured after 1 hr by ADP-glo plus luminescence assay
[3] = target: Voltage-gated inwardly rectifying potassium channel KCNH2 (Homo sapiens, UniProt Q12809); test: Inhibition of human ERG
[4] = target: Phosphatidylinositol 4,5-bisphosphate 3-kinase catalytic subunit beta isoform (Homo sapiens, UniProt P42338); test: Inhibition of PI3Kbeta (unknown origin) using PIP2 as substrate measured after 1 hr by ADP-glo plus luminescence assay
[5] = test system: MDA-MB-468; test: Antiproliferative activity against human BRCA proficient MDA-MB-468 cells assessed as reduction in cell growth incubated for 7 days by cell titer-glo assay; format: functional, cell-based; conditions: MDA-MB-468, 168 h
[6] = target: Poly [ADP-ribose] polymerase 2 (Homo sapiens, UniProt Q9UGN5); test: Inhibition of PARP2 (unknown origin) using biotin-NAD+ as substrate incubated for 1 hr by ELISA
[7] = test system: HCC1937; test: Antiproliferative activity against human BRCA-1 deficient HCC1937 cells assessed as reduction in cell growth incubated for 7 days by cell titer-glo assay; format: functional, cell-based; conditions: HCC1937, 168 h
[8] = test system: MDA-MB-468; test: Antitumor activity against human MDA-MB-468 cells xenografted in BALB/c mouse assessed as tumor growth inhibition at 20 mg/kg, ip once daily administered for 32 days relative to control; format: functional; conditions: MDA-MB-468, ip, 768 h, time 32 day, read-out: TGI
[9] = test system: SW-620; test: Antiproliferative activity against human BRCA-2 proficient SW-620 cells assessed as reduction in cell growth incubated for 7 days by cell titer-glo assay; format: functional, cell-based; conditions: SW-620, 168 h
[10] = test system: MDA-MB-231; test: Antiproliferative activity against human BRCA proficient MDA-MB-231 cells assessed as reduction in cell growth incubated for 7 days by cell titer-glo assay; format: functional, cell-based; conditions: MDA-MB-231, 168 h
[11] = target: T1, Phosphatidylinositol 4,5-bisphosphate 3-kinase catalytic subunit delta isoform (Homo sapiens, UniProt O00329); test: Inhibition of PI3Kdelta (unknown origin) using PIP2 as substrate measured after 2 hrs by ADP-glo plus luminescence assay
T1 sequence (O00329 whole entry): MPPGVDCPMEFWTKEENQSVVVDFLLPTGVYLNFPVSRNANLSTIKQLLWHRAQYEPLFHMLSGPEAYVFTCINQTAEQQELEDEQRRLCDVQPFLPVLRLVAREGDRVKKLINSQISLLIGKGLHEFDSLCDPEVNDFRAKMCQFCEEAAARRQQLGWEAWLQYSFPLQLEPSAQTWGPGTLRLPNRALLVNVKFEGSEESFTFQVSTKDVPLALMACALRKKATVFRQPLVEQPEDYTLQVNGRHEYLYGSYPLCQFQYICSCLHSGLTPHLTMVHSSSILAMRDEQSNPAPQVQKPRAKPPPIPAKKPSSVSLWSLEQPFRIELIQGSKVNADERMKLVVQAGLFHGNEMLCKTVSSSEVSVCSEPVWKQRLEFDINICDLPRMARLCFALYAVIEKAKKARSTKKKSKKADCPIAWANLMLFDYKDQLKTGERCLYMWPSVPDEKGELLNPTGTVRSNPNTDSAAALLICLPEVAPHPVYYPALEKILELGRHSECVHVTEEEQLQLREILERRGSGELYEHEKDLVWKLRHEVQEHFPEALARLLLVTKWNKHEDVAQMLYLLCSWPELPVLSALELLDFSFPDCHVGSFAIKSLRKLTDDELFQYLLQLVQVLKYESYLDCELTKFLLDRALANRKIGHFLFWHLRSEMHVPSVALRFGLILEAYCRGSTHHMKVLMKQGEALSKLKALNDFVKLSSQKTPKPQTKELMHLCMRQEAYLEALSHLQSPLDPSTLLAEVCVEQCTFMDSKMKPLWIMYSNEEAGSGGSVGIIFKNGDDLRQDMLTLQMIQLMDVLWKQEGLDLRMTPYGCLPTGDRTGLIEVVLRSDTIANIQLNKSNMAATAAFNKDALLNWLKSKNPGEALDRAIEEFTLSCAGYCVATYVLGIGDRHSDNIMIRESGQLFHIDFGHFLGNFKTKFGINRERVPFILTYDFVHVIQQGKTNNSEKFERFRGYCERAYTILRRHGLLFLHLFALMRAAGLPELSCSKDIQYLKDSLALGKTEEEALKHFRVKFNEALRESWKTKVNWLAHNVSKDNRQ

[12] = target: Serine/threonine-protein kinase mTOR (Homo sapiens, UniProt P42345); test: Inhibition of mTOR (unknown origin)
[13] = target: Poly [ADP-ribose] polymerase 1 (Homo sapiens, UniProt P09874); test: Inhibition of PARP1 (unknown origin) using biotin-NAD+ as substrate incubated for 1 hr by ELISA
[14] = target: RAC-alpha serine/threonine-protein kinase (Homo sapiens, UniProt P31749); test: Inhibition of AKT (unknown origin)
[15] = test system: HCT-116; test: Antiproliferative activity against human BRCA-2 deficient HCT-116 cells assessed as reduction in cell growth incubated for 7 days by cell titer-glo assay; format: functional, cell-based; conditions: HCT-116, 168 h
[16] = test system: MDA-MB-468; test: Antitumor activity against human MDA-MB-468 cells xenografted in BALB/c mouse assessed as tumor growth inhibition at 27.5 mg/kg, ip once daily administered for 32 days relative to control; format: functional; conditions: MDA-MB-468, ip, 768 h, time 32 day, read-out: TGI
[17] = test system: MDA-MB-468; test: Antitumor activity against human MDA-MB-468 cells xenografted in BALB/c mouse assessed as tumor growth inhibition at 27.5 mg/kg, ip administered for 32 days along with olaparib relative to control; format: functional; conditions: MDA-MB-468, ip, 768 h, time 32 day, read-out: TGI
[18] = test system: MDA-MB-468; test: Antitumor activity against human MDA-MB-468 cells xenografted in BALB/c mouse assessed as tumor growth inhibition at 50 mg/kg, ip administered for 32 days along with GDC-0980 relative to control; format: functional; conditions: time 32 day
[19] = test system: MDA-MB-468; test: Antitumor activity against human MDA-MB-468 cells xenografted in BALB/c mouse assessed as tumor growth inhibition at 50 mg/kg, ip once daily administered for 32 days relative to control; format: functional; conditions: time 32 day

Chain of Phosphatidylinositol 4,5-bisphosphate 3-kinase catalytic subunit beta isoform (P42338 whole entry, canonical isoform): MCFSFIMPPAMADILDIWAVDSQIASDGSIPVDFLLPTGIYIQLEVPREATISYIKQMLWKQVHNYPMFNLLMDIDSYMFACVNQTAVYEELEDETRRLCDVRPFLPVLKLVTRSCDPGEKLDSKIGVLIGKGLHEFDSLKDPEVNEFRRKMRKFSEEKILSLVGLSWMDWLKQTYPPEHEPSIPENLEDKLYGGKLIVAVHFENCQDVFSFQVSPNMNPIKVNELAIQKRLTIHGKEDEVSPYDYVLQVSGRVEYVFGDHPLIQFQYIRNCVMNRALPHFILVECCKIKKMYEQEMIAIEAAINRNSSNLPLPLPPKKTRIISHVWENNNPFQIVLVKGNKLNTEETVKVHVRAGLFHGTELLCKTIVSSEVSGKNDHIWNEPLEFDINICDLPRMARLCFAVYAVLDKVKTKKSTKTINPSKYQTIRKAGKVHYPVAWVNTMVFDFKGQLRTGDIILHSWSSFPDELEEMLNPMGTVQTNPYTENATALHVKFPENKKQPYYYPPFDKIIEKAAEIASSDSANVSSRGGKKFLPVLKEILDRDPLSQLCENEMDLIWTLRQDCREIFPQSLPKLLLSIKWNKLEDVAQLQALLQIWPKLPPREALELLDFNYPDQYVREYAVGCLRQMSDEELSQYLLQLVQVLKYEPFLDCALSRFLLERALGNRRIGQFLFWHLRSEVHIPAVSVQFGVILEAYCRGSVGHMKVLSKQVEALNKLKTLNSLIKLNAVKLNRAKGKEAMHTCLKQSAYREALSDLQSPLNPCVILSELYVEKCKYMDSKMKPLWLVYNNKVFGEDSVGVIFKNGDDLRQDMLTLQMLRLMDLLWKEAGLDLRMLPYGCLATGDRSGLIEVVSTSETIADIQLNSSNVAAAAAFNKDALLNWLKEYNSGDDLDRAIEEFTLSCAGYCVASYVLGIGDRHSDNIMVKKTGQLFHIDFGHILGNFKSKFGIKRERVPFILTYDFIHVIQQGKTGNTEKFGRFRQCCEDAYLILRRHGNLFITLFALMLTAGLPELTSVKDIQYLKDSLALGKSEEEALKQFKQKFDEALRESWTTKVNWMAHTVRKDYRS
Chain of Phosphatidylinositol 4,5-bisphosphate 3-kinase catalytic subunit gamma isoform (P48736 whole entry, canonical isoform): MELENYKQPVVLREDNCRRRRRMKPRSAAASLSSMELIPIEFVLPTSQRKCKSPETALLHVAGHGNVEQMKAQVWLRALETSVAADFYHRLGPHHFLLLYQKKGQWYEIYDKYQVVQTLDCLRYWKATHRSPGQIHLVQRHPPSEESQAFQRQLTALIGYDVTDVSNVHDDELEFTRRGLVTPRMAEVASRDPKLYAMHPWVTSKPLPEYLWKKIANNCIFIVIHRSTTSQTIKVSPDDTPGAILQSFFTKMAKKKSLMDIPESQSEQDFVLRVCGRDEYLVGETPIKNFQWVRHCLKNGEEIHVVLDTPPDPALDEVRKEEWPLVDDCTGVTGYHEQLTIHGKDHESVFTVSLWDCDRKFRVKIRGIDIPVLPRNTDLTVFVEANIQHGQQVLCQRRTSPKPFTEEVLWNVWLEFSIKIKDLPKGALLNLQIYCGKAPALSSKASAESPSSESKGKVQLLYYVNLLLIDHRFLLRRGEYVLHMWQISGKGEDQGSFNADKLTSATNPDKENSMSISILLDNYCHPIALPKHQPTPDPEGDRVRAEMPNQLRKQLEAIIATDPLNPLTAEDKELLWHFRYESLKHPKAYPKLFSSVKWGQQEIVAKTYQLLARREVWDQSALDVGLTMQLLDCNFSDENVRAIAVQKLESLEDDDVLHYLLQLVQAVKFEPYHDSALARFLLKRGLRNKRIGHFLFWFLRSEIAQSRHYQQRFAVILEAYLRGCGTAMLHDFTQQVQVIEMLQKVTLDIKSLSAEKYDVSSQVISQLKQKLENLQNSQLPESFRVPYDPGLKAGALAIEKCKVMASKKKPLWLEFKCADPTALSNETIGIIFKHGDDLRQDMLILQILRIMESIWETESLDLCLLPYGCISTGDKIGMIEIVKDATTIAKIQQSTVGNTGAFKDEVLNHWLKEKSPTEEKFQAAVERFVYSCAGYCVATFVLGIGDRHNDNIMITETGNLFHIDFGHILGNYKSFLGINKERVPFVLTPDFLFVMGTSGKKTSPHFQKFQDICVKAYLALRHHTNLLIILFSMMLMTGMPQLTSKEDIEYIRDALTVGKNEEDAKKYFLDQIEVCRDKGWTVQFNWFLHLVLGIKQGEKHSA
Chain of Poly [ADP-ribose] polymerase 2 (Q9UGN5 whole entry): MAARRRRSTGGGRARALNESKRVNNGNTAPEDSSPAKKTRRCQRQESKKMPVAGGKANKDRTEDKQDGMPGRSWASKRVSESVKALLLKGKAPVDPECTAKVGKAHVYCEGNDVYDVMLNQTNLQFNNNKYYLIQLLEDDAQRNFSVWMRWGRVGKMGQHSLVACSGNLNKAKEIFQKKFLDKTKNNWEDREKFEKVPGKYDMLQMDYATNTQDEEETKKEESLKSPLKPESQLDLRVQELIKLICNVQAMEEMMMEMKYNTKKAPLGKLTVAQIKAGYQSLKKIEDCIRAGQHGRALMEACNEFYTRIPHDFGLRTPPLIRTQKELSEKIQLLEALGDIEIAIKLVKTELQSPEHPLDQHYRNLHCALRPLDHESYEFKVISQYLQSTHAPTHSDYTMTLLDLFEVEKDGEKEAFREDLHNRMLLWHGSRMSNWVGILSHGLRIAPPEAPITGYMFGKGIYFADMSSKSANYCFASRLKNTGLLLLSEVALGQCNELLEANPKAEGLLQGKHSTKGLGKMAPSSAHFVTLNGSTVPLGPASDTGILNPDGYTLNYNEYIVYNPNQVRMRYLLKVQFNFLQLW
Chain of Poly [ADP-ribose] polymerase 1 (P09874 whole entry): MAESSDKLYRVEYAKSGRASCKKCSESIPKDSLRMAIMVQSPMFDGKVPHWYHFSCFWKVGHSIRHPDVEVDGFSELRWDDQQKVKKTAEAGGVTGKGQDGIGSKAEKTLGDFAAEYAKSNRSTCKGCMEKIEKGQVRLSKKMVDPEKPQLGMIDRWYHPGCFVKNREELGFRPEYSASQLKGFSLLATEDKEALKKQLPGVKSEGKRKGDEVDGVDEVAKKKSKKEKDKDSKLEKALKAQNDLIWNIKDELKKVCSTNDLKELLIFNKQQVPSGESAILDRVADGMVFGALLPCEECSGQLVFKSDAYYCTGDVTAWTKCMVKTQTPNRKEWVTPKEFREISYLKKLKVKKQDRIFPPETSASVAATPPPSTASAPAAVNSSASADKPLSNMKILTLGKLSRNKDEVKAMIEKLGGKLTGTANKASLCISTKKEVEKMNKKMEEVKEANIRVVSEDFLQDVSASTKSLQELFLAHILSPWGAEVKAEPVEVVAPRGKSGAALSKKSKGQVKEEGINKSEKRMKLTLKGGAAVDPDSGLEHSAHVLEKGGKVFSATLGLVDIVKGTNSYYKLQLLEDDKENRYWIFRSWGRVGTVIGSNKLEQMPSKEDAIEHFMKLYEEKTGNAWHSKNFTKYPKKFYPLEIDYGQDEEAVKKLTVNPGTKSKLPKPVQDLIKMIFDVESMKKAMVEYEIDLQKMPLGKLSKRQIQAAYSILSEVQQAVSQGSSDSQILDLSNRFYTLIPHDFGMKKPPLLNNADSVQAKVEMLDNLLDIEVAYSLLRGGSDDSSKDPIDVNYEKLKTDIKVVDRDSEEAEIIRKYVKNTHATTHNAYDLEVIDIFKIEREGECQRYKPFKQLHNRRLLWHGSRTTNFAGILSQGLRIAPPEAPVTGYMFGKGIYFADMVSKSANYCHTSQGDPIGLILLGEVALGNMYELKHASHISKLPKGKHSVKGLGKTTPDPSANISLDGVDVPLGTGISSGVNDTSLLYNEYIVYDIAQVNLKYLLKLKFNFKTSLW
Chain of Phosphatidylinositol 4,5-bisphosphate 3-kinase catalytic subunit alpha isoform (P42336 whole entry, canonical isoform): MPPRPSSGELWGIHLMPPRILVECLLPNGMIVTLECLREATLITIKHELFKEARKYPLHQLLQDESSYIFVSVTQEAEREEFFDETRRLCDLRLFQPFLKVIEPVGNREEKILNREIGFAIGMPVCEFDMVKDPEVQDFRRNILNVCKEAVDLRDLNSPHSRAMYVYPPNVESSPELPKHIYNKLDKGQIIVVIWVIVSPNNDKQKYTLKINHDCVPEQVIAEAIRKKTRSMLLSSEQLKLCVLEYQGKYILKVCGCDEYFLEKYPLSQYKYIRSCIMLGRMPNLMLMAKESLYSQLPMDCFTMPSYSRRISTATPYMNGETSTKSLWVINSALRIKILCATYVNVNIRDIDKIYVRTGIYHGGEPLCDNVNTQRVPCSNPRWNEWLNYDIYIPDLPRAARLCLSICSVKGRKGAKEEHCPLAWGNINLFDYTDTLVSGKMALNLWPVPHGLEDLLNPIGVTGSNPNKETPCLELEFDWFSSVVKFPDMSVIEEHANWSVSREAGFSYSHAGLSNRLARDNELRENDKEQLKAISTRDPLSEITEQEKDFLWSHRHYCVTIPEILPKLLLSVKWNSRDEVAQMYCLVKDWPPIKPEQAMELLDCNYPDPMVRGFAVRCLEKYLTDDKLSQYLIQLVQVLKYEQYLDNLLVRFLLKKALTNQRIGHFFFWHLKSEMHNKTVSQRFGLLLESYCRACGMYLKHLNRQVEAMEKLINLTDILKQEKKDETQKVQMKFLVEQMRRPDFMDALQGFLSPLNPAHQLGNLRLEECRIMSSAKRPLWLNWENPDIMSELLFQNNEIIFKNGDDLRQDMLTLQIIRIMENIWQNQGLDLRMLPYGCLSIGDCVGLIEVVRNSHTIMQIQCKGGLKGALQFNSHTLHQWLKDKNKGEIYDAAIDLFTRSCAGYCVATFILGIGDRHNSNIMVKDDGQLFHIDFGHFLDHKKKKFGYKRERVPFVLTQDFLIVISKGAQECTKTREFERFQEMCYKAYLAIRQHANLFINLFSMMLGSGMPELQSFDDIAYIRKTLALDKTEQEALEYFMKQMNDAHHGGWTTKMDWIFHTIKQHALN

SMILES	IC50 [1] [nM]	IC50 [2] [nM]	IC50 [3] [nM]	IC50 [4] [nM]	IC50 [5] [nM]	IC50 [6] [nM]	IC50 [7] [nM]	inhibition in vivo at 20 mg/kg [8] [%]	IC50 [9] [nM]	IC50 [10] [nM]	IC50 [11] [nM]	IC50 [12] [nM]	IC50 [13] [nM]	IC50 [14] [nM]	IC50 [15] [nM]	inhibition in vivo at 27.5 mg/kg [16] [%]	inhibition in vivo at 27.5 mg/kg [17] [%]	TGI [18] [%]	TGI [19] [%]
Cc1c(CN2CCN(C(=O)c3cc4cccc(C(N)=O)c4o3)CC2)sc2c(N3CCOCC3)nc(-c3cnc(N)nc3)nc12	1.5	73	> 30000	43	1020	0.92	290	48.8	880	920	2.7	12	0.91	> 100000	280				
Cc1c(CN2CCN(C(=O)c3cc4cccc(C(N)=O)c4o3)CC2)sc2c(N3CCOCC3)nc(-c3ccc(N)cc3F)nc12													40.1						
NC(=O)c1cccc2cc(C(=O)N3CCN(Cc4cc5nc(-c6cnc(N)nc6)nc(N6CCOCC6)c5o4)CC3)oc12	0.51	141		69		1.34					4.3	216	2.97						
Cc1c(CN2CCN(C(=O)c3cc4cccc(C(N)=O)c4o3)CC2)sc2c(N3CCOCC3)nc(-c3ccc(N)cc3)nc12	319				9260		4580		7980	7170			22.6		3970				
NC(=O)c1cccc2cc(C(=O)N3CCN(Cc4cc5nc(-c6cnc(N)nc6)nc(N6CCOCC6)c5s4)CC3)oc12	0.6	31		11		1.19					1.8	23	1.98						
Cc1c(CN2CCN(C(=O)c3cc4cccc(C(N)=O)c4o3)CC2)sc2c(N3CCOCC3)nc(-c3ccc4cn[nH]c4c3)nc12	3810				> 10000		3570		> 10000	> 10000			91.5		5070				
Cc1c(CN2CCN(C(=O)c3cc(Cc4n[nH]c(=O)c5ccccc45)ccc3F)CC2)sc2c(N3CCOCC3)nc(-c3cnc(N)cc3C(F)(F)F)nc12	7				2650		1080		7230	3600			197		690				
Cc1c(CN2CCN(C(=O)[C@H](C)O)CC2)sc2c(N3CCOCC3)nc(-c3cnc(N)nc3)nc12 [APITOLISIB]					1670		3210		1720	2460					1110	38	45.9		
O=C(c1cc(Cc2n[nH]c(=O)c3ccccc23)ccc1F)N1CCN(C(=O)C2CC2)CC1 [OLAPARIB]					> 10000		> 10000		> 10000	> 10000					> 10000			45.93	27.91
